Laboratory results from patent publication US12559574B2 (National Health Research Institutes, priority 2019, dated 2026).
Like-named read-outs stand apart in the source and are kept apart here.

Experiments:
[1] = test system: LLC cells; assay: transwell migration and Matrigel invasion, LLC; type: cell-based, murine; details: 24 h; for succinate-induced LLC migration: succinate with test agent
Procedure: (§1) Transwell migration and invasion assays are performed. Relative ability of migration or invasion is calculated from 3 fields under a light microscope. […] Migration assays and Matrigel invasion assay are then performed with PDGF-BB as a chemoattractant and migrated cell counts expressed as fold of basal controls.
(§2) LLC and A549 lung cancer cells are treated with different concentrations of HIF-1α specific inhibitors, and cell migration is assessed in a transwell assay. […] Prolyl hydroxylase (PHD) controls HIF-1α protein stability by hydroxylation of two conserved proline residues in HIF-1α thereby accelerating its degradation. […] Cell lysates are immunoblotted with antibodies specific for E-cadherin, Vimentin, or […]-actin.

[2] = test system: A549; assay: transwell migration and Matrigel invasion, A549; type: cell-based, human; details: 24 h; for succinate-induced A549 migration: succinate with test agent
Procedure: as §1
(§3) The cells are lysed, and the cell lysates are immunoblotted with antibodies specific for E-cadherin, N-cadherin, vimentin, or β-actin.
as §2

[3] = test system: A549 cells; assay: EMT marker immunoblot in A549 cells; type: cell-based, human
Procedure: as §3, §2

[4] = test system: HIF-1α; assay: kinase phosphorylation and HIF-1α expression in A549 cells; type: cell-based, human; details: for HIF-1α expression: A549/shNC cells, succinate 1 mM or DMS 20 mM, 12 h, qPCR
Procedure: MAPK-, phosphatidylinositol 3-kinase (PI3K)-AKT-mTOR-, and AMP-activated protein kinase (AMPK)-mediated hypoxia-inducible factor-1α (HIF-1α) upregulation plays critical roles in macrophage activation and cancer progression. Therefore, it is investigated that whether these signaling molecules mediate the succinate actions. […] Using selective kinase inhibitors, LLC cells are treated with different concentrations of LY294002 or SB202190 for 12 h, and Hif-1α mRNA is measured. […] To understand the role of SUCNR1 in driving HIF-1α expression, the expression level of HIF-1α in A549/shSUCNR1 is determined.

[5] = test system: PC3; assay: transwell migration and Matrigel invasion, PC3; type: cell-based, human; details: PC3, different concentrations of succinate, 24 h
Procedure: (§4) Transwell migration and invasion assays are performed.
(§5) Succinate-induced migration of LLC, A549, PC3 and HT-29 cells is blocked by anti-SUCNR1 antibody but not control IgG antibody (FIG. 23A).

[6] = test system: SUCNR1; details: A549, succinate 1 mM
[7] = test system: HIF-1α; assay: kinase phosphorylation and HIF-1α expression in LLC cells; type: cell-based, murine; details: succinate 1 mM
[8] = test system: LLC
Source text: The subcutaneous primary tumors are surgically removed after 3 weeks and mice are kept for another 2 weeks at which time animals are sacrificed.

[9] = test system: HT-29; assay: transwell migration and Matrigel invasion, HT-29; type: cell-based, human; details: HT-29, different concentrations of succinate, 24 h
Procedure: as §4, §5

[10] = test system: SUCNR1; details: succinate 1 mM, 2 h
[11] = test system: mouse peritoneal macrophages
Procedure: (§6) On day 21, primary subcutaneous tumors are harvested, and percentage of TAMs is analyzed.

[12] = test system: LLC; details: succinate 20 and 100 mg/kg i.p. twice a week for 3 weeks vs saline
Procedure: as §6

[13] = test system: peritoneal macrophages; assay: peritoneal macrophage transwell migration (A549-CM, succinate, anti-SUCNR1); type: cell-based, mouse; details: succinate vs control
Procedure: The peritoneal macrophages are seeded on the upper chamber of transwell plates and cultured with control medium (DMEM) or CM from A549 (A549-CM) for 24 h. […] As shown in FIGS. 18A and 18B, A549-CM and A549-SCM increase macrophage migration compared with the control medium, which is abrogated by anti-SUCNR1 antibody but not control IgG.

[14] = test system: MCF-7; details: MCF-7, different concentrations of succinate, 24 h
Procedure: as §1

[15] = test system: PMϕs; assay: VCAM1+CD11c+CD11b low-TAM population in succinate-stimulated PMϕs, flow cytometry; type: cell-based, mouse; details: pre-treated 1 h, succinate 1 mM 3 days
Procedure: (§7) VCAM1^+CD11c^+CD11b^low-TAM population is quantified by flow cytometry and normalized to the cell number of control medium treatment. […] The LLC cells are subcutaneously injected into C57BL/6J mice. The mice with an average 50 mm^3 subcutaneous tumors (8 day after LLC tumor inoculation) receive intraperitoneal injections of 6G10F6 monoclonal antibody (1 and 5 mg/kg) or IgG control antibody (5 mg/kg), twice a week for 5 weeks. The subcutaneous tumors are surgically removed 3 weeks after LLC injection for the assessment of TAM polarization; the lung, liver, spleen, and adrenal gland are excised from mice 2 weeks after removal of the primary tumor for the determination of tumor metastasis.

[16] = test system: peritoneal macrophages; assay: succinate-induced peritoneal macrophage migration with anti-succinate antibodies, transwell; type: cell-based, mouse; details: succinate 1 mM, 24 h
Procedure: as §7

[17] = test system: LLC; assay: syngeneic murine LLC tumor model treated with 6G10F6 monoclonal antibody
Procedure: as §7

[18] = succinate 20 and 100 mg/kg i.p. twice a week vs saline

Molecule: COc1cc2c(cc1O)CC[C@@H]1[C@@H]2CC[C@]2(C)[C@@H](O)CC[C@@H]12 [2-MeOE2]
- succinate-induced LLC migration [1]: inhibit succinate-mediated migration of LLC and A549 in a dose-dependent manner
- succinate-induced A549 migration [2]: inhibit succinate-mediated migration of LLC and A549 in a dose-dependent manner

Molecule: Cc1cc(-c2nc(-c3ccc(OC(F)(F)F)cc3)no2)nn1Cc1ccnc(N2CCN(C3CC3)CC2)c1 [Bay 87-2243]
- succinate-induced LLC migration [1]: inhibit succinate-mediated migration of LLC and A549 in a dose-dependent manner
- succinate-induced A549 migration [2]: inhibit succinate-mediated migration of LLC and A549 in a dose-dependent manner
- succinate-mediated vimentin augmentation and E-cadherin reduction ([3]; pretreated 1 h, succinate 1 mM 24 h): suppresses

Molecule: COC(=O)CNC(=O)C(=O)OC [DMOG, dimethyloxalyl glycine]
- succinate-induced A549 migration [2]: increases

Molecule: COC(=O)CCC(=O)OC [DMS, dimethyl-ester succinate, reference compound]
- HIF-1α expression [4]: results in elevation of HIF-1α

Molecule: CN(C)C(=N)N=C(N)N [metformin]
- succinate-induced A549 migration [2]: abolish

Molecule: O=C(O)CCC(=O)O [succinate]
- cell migration and invasion [5]: promotes cell migration and invasion
- phosphorylated ERK1/2 [6]: rapid rise of phosphorylated ERK1/2 at 2 min
- intracellular Ca2+ ([6]; 2 h): increased
- cell migration and invasion ([1]; LLC, different concentrations of succinate): promotes cell migration and invasion
- cell migration and invasion ([2]; A549, different concentrations of succinate): promotes cell migration and invasion
- HIF-1α protein and mRNA expression [7]: increases HIF-1α protein
- phosphorylation of p38 MAPK, AKT, and AMPK [7]: induces phosphorylation of p38 MAPK, AKT, and AMPK in a time-dependent manner
- E-cadherin, N-cadherin and vimentin levels ([3]; succinate 0.5, 1, 2.5 mM 24 h, 1 mM time course): suppresses E-cadherin and increased N-cadherin and vimentin in a concentration and time-dependent manner
- metastatic cancer nodules in liver and spleen [8, 18]: similarly higher
- metastatic cancer nodules in lungs [8, 18]: higher in mice receiving succinate (in a dose-dependent manner) than in mice receiving saline
- incidence of adrenal metastasis ([8]; succinate-treated vs saline, p=0.088): higher in succinate-treated animal, but the difference does not reach statistical significance
- cell migration and invasion [9]: promotes cell migration and invasion
- HIF-1α protein and mRNA expression ([4]; A549, succinate 1 mM): increases HIF-1α protein
- phosphorylation of p38 MAPK, AKT, and AMPK ([4]; A549, succinate 1 mM): induces phosphorylation of p38 MAPK, AKT, and AMPK in a time-dependent manner
- HIF-1α expression [4]: Up-regulation of HIF-1α is observed
- PGE2 released into the medium ([10]; LLC stably transfected with control shRNA): increased
- intracellular Ca2+ ([10]; LLC): increased
- ARG1 protein expression ([11]; different concentrations of succinate, 24 h): increases the expression of ARG1 protein in mouse peritoneal macrophages in a concentration-dependent manner
- TAM marker gene expression (Arg1, Fizz1, Mgl1, Mgl2 mRNA) ([11]; qPCR, 24 h): raises the expression of TAM marker gene
- TAM surface markers CD11c and VCAM1 ([11]; succinate 1 mM, 3 days, flow cytometry): up-regulates TAM surface markers
- VCAM1+CD11c+CD11b low-TAMs in primary subcutaneous tumors [12]: significantly higher number
- macrophage migration [13]: dramatically increase macrophage migration
- cell migration and invasion [14]: promotes cell migration and invasion

Molecule: O=C(O)CCC(=O)C(=O)O [α-KG, α-ketoglutarate]
- succinate-induced A549 migration [2]: reduces

B1: 6G10F6: mouse monoclonal anti-succinate antibody, heavy chain SEQ ID NO: 2, light chain SEQ ID NO: 4 (antibody, V domains shown)
VH: MRVLILLWLFTAFPGILSDVQLQESGPGLVKPSQSLSLTCTVTGYSITSDYAWNWFRQFPGNKLEWMGYTSYSGSTSYNPSLKSRISITRNTSKNQIFLQLNSVTPEDTATYYCAREVTTFGYFDYWGQGTTLTVSS
VL: MAWTSLILSLLALCSGASSQAVVTQESALTTSPGGTVILTCRSSTGAVTTSNYANWVQEKPDHLFTGLIGGTSNRAPGVPVRFSGSLIGDKAALTITGAQTEDDAMYFCALWYSTHYVLGGGTKVTVL
modifications: Heavy chain of 6G10F6 Antibody; Light chain of 6G10F6 antibody
- succinate up-regulated TAM surface markers CD11c and VCAM1 [15]: suppresses
- succinate-induced macrophage migration [16]: suppresses
- survival of LLC tumor-bearing mice ([17]; 1 and 5 mg/kg i.p.): significantly prolongs the survival
- lung tumor multiplicities ([17]; 1 and 5 mg/kg i.p. twice a week for 5 weeks, vs saline): significantly suppresses
- TAM population in subcutaneous tumors ([17]; 1 and 5 mg/kg i.p. twice a week, vs saline): significantly suppresses
